Measurements reported in patent EP0867722A2, “Method for measuring interaction between sugar and target” (TAKARA SHUZO CO. LTD., priority 1997, dated 1998).

molecular target: T1, concanavalin A (Canavalia ensiformis, UniProt P02866); assay: Fluorescence polarization measurement of interaction between fluorescence-labeled sugar fractions and concanavalin A; assay type: binding; details: 1 µM labeled sugar or fluorophore; no maximum means EC50 impossible to calculate
T1 construct: purchased Honen Oil Co., Ltd
From the text: The interaction between the sugar molecules and the target molecules to be measured is not always highly specific as compared with antigen-antibody reaction. To find the most suitable combination, the degree of interaction should be evaluated. As an index to show the degree of interaction, for example, EC50 can be used, which is a half value of the minimum target concentration giving the maximum degree of fluorescence polarization.
BEACON™ 2000 (PanVera Corp.) was modified so as to be adapted for the detection of pyridylamino-labeled substances. […]
Seven fractions of fluorescence-labeled sugars prepared in the above item 1 were freeze-dried to remove water, acetonitrile and eluents-derived salts, and then used for the subsequent measurement of an interaction. The measurement of the degree of fluorescence polarization was conducted as follows. […]
In each of the eight solutions of concanavalin A in various concentrations, each fluorescence-labeled sugar fraction was dissolved to a concentration of 1 µM. After the dissolution, the solutions were allowed to stand at room temperature for 30 minutes, and the reaction mixtures thus obtained were used each in a volume of 100 µl to measure the degree of fluorescence polarization with a modified apparatus of the BEACON™ system as described in the above item 2, which was equipped with filters for excitation at 310 nm and emission at 390 nm. […]

Row | SMILES | maximum in the degree of fluorescence polarization over the range of concentration of concanavalin A
1 | Nc1ccccn1 [AP, 2-Aminopyridine] | no maximum

test system: not listed separately; assay: Photostability of labeling fluorophores under white fluorescent lamp (residual fluorescence); assay type: physicochemical; details: 1 µM in 10 mM Tris-HCl buffer, pH 7.5, 25°C, white fluorescent lamp about 4000 lux, 16 hours; ratio of exposed solution to shaded solution
From the text: For the measurement of photostability, therefore, such labeling fluorophores are used. The following seven labeling fluorophores were selected. • 1. 2-Aminopyridine (AP) (Nacalai Tesque Inc.) • 2. […] 8-Amino-2-naphthol (AN) (Aldrich Chemical Company, Inc.) • 4. 5-((5-aminopentyl)thioureidyl)fluorescein (AF) (Molecular Probes Inc.) • 5. 5-Dimethylaminonapnthalene-1-(N-(2-minoethyl))sulfone (AD) (Molecular Probes Inc.) • 6. 2-Aminobenzamide (AB) (Oxford GlycoSystems Ltd.) • 7. 8-Amino-naphthalene-1,3,6-trisulfonic acid (ANTS) (Molecular Probes Inc.)
Each of the above reagents was dissolved in 10 mM Tris-HCl buffer, pH 7.5, to a concentration of 1 µM, and 1 ml of each solution was placed in a test tube of hard glass (size: diameter, 12 mm and length, 120mm) and allowed to stand at 25°C under a white fluorescent lamp. At this time, the illumination intensity in the vicinity of each solution was measured by an illumination photometer to be about 4000 lux. For controls, test tubes containing the same solutions were prepared, but they were shaded with aluminum foil and stored under the same conditions as described above. After 16 hours, the fluorescence of each solution was measured by fluorescent spectrophotometer RF-540 (Shimazu Corp.). The excitation and emission wavelengths used in the measurement of fluorescence of the solutions of each fluorescent substance, and residual fluorescence (i.e., ratio of the relative degree of fluorescence for the exposed solution to the relative degree of fluorescence for the shaded solution) are shown in Table 1.

Row | SMILES | Residual fluorescence (%)
2 | NCCCCCNC(=S)Nc1ccc2c(c1)C(=O)OC21c2ccc(O)cc2Oc2cc(O)ccc21 [AF, 5-((5-aminopentyl)thioureidyl)fluorescein] | 17
3 | Nc1cc(S(=O)(=O)O)cc2cc(S(=O)(=O)O)cc(S(=O)(=O)O)c12 [ANTS, 8-Amino-naphthalene-1,3,6-trisulfonic acid] | 96
4 | Nc1ccccn1 [AP, 2-Aminopyridine] | 98

The next lines start with the values.

Row | Residual fluorescence (%) | SMILES
5 | 96 | NC(=O)c1ccccc1N [AB, 2-Aminobenzamide]
6 | 97 | CN(C)c1cccc2c(S(=O)(=O)NCCN)cccc12 [AD, 5-Dimethylaminonapnthalene-1-(N-(2-minoethyl))sulfone]
7 | 84 | Nc1cccc2ccc(O)cc12 [AN, 8-Amino-2-naphthol]
